Holding throughout (type): biochemical
Experiment [1] addresses T1, human GST-DYRK1A (full length) (Homo sapiens, UniProt Q13627).
T1 construct: purified human GST-DYRK1A (full length, Thermo scientifics) enzyme; GST; purchased Thermo scientifics
Description: GST-DYRK1A enzyme inhibition, ADP-Glo kinase assay. The conditions noted are these: read-out: DYRK1 IC50. On the procedure:
(§1) In order to evaluate the inhibitory activity of the compounds according to the present invention on LRRK2, LRRK2 (G2019S), DYRK1, CLK1 and TTK kinases, the following experiment was performed.
(§2) Example compounds were reacted with the purified human GST-DYRK1A (full length, Thermo scientifics) enzyme to evaluate the enzyme inhibitory ability as follows. As the reaction buffer, the composition of 40 mM Tris-HCl pH 7.4, 20 mM MgCl2, 0.5 mg/mL BSA, and 50 uM DTT was used, and the reaction of all test materials was performed on the reaction buffer. During the test, the human GST-DYRK1A (full length, 10 ng) enzyme, the purified ATP (10 uM), and a specific substrate solution were reacted at 25° C. for 1 hour, and then the enzyme activity was identified using the in vitro ADP-Glo™ kinase assay (promega). Luminescence was measured by reacting the enzyme activity reaction solution, an ADP-Glo reaction solution and the enzyme potency detection solution in a ratio of 2:2:1. The degree of inhibition of enzyme activity according to the treatment concentrations of the respective compounds was calculated based on the fluorescence of the enzyme activity of a solvent control group that was not treated with the compound, where the concentration of each compound to inhibit enzyme activity inhibition by 50% was determined as an IC50 (nM) value. The IC50 of each compound was determined in triplicate data sets and obtained using Prism (version 7.01, GraphPad) software.
(§3) In the table below, the following designations were used for the evaluation of enzyme inhibitory ability.
(In general: ADP-Glo first removes unused ATP, then detects ADP through luciferase.)

The target of the next experiment is T2, human GST-CLK1 (129-end) (Homo sapiens, UniProt P49759).
T2 construct: purified human GST-CLK1 (129-end, Signalchem) enzyme; GST; purchased Signalchem
T2 sequence (P49759 129-484 limits assumed): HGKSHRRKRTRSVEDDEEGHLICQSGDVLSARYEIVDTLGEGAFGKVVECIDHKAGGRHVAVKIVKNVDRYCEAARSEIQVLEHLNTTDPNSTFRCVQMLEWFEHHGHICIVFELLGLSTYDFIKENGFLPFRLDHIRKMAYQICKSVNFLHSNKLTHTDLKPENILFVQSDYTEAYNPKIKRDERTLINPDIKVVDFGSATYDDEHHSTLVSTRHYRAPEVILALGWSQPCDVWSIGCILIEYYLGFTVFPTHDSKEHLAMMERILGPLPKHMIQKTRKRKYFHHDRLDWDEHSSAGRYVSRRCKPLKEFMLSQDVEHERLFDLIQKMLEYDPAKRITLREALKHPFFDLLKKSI
Description: GST-CLK1 enzyme inhibition, ADP-Glo kinase assay. The conditions noted are these: ATP 10 uM. As for the experimental part:
as §1
as §2, with “GST-CLK1 (129-end, Signalchem)” for “GST-DYRK1A (full length, Thermo scientifics)”, “GST-CLK1 (129-end, 3” for “GST-DYRK1A (full length, 10”
as §3

A further experiment has as its target LRRK2 (G2019S) (Homo sapiens, UniProt Q5S007, G2019S). The experiment in a line: LRRK2 G2019S enzyme inhibition, ADP-Glo kinase assay. On the set-up: purchased SignalChem L10-12GG. As for the experimental part: as §1
Example compounds were reacted with the purified human LRRK2 G2019S (L10-12GG, SignalChem) enzyme to evaluate the enzyme inhibitory ability as follows. The reaction buffer was used as the composition of 40 mM Tris-HCl pH7.4, 20 mM MgCl2, 0.5 mg/ml BSA and 50 μM DTT, and the reaction of all test materials was performed on the reaction buffer. The compound was diluted with 10 mM DMSO stock in 12 steps by a serial dilution method, and the enzyme activity was measured at the final compound concentrations of 50, 10, 2, 0.4, 0.08, 0.016, 0.0032, 0.00064, 0.000128, 0.0000256, 0.00000512 and 0.000001024 μM. In the test, the human LRRK2 G2019S (16 ng) enzyme was reacted with the purified ATP (25 μM) and an enzyme substrate (0.2 μg) at 25° C. for 2 hours, and then the enzyme activity was identified using the in vitro ADP-Glo™ kinase assay (promega). The enzyme activity reaction liquid, an ADP-Glo reaction liquid and an enzyme potency detection solution were reacted in a ratio of 2:2:1, and the degree of inhibition of enzyme activity was measured by Luminescence. The degree of inhibition of enzyme activity according to the treatment concentrations of the respective compounds was calculated based on the fluorescence of the enzyme activity of a solvent control group that was not treated with the compound, where the concentration of each compound to inhibit enzyme activity inhibition by 50% was determined as an IC50 (nM) value and obtained using Prism (Version 5.01, GraphPad) software.
as §3

As a reminder, the IC50 is the point on the concentration scale where inhibition reaches its midpoint.

Molecules are shown by their SMILES.

Chain of LRRK2 (G2019S) (Q5S007 970-2527 G2019S limits assumed): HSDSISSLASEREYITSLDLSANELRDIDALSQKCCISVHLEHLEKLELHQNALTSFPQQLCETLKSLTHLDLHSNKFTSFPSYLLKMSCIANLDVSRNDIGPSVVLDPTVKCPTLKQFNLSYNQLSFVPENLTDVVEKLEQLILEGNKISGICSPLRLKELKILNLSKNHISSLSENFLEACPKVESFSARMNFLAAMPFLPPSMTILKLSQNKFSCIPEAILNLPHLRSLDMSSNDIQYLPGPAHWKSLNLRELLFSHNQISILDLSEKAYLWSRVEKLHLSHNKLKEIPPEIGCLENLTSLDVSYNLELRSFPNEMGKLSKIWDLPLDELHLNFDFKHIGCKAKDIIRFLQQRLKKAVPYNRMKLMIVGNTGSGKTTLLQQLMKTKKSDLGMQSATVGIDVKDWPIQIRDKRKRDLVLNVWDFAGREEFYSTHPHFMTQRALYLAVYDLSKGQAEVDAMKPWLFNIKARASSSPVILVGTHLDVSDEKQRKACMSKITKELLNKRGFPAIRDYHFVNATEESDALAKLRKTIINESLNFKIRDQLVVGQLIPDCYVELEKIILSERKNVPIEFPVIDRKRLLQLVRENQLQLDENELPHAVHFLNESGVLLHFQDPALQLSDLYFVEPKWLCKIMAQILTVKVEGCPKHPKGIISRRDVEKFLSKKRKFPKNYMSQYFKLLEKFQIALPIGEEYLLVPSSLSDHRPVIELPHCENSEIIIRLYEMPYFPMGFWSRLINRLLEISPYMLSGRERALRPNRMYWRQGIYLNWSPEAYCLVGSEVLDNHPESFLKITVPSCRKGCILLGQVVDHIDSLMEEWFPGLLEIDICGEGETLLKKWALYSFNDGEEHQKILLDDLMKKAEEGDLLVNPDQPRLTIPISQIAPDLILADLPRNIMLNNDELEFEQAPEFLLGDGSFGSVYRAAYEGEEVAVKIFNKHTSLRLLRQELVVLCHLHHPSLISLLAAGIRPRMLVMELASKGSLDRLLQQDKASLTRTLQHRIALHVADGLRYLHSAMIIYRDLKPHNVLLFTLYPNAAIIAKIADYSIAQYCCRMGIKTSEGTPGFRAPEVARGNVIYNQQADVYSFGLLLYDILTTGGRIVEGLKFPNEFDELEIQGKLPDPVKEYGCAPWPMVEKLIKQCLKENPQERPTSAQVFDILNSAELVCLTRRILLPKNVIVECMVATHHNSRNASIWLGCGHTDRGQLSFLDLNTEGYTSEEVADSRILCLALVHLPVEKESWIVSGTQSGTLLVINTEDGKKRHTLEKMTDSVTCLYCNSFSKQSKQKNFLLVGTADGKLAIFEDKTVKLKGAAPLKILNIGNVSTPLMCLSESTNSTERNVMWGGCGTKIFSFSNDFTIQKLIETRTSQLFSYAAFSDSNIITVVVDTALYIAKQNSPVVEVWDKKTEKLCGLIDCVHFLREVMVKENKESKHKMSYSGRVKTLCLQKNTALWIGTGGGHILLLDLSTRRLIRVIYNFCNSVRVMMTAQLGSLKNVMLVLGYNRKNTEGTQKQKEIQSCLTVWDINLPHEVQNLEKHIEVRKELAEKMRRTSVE

`CCCNc1cc(Nc2ccc(S(=O)(=O)N3CCOCC3)cc2OC)nc2[nH]ccc12` [Example 12, N^6-(2-methoxy-4-(morpholinosulfonyl)phenyl)-N^4-propyl-1H-pyrrolo[2,3-b]pyridine-4,6-diamine 2,2,2-trifluoroacetate]: the results for the half-inhibitory concentration (IC50) (in experiment [1]; at human GST-CLK1 (129-end); against LRRK2 (G2019S)) were 301 to 1000 nM, 301 to 1000 nM and less than 100 nM, respectively.

As for `CCNc1cc(Nc2ccc(S(=O)(=O)N3CCC(N4CCOCC4)CC3)cc2OC)nc2[nH]ccc12` [Example 19, N^4-ethyl-N^6-(2-methoxy-4-((4-morpholinopiperidin-1-yl)sulfonyl)phenyl)-1H-pyrrolo[2,3-b]pyridine-4,6-diamine], the 50% inhibitory concentration (IC50) in experiment [1] is 301 to 1000 nM; on human GST-CLK1 (129-end) it was 301 to 1000 nM; on LRRK2 (G2019S), less than 100 nM.

On to `COc1cc(S(=O)(=O)N2CCC(N3CCOCC3)CC2)ccc1Nc1cc(NC(C)C)c2c(Cl)c[nH]c2n1` [Example 75, 3-chloro-N^4-isopropyl-N^6-(2-methoxy-4-((morpholinopiperidin-1-yl)sulfonyl)phenyl)-1H-pyrrolo[2,3-b]pyridine-4,6-diamine], for which the half-inhibitory concentration (IC50) is 301 to 1000 nM in experiment [1], 301 to 1000 nM against human GST-CLK1 (129-end) and less than 100 nM against LRRK2 (G2019S).

`COc1cc(S(=O)(=O)N2CCC(N3CCOCC3)CC2)ccc1Nc1cc(NC2CC2)c2c(Cl)c[nH]c2n1` [Example 76, 3-chloro-N^4-cyclopropyl-N^6-(2-methoxy-4-((morpholinopiperidin-1-yl)sulfonyl)phenyl)-1H-pyrrolo[2,3-b]pyridine-4,6-diamine]: the IC50 in experiment [1] is 301 to 1000 nM; on human GST-CLK1 (129-end) it was 301 to 1000 nM; against LRRK2 (G2019S), less than 100 nM.

For the compound `CCNc1cc(Nc2ccc(C(=O)N3CCN(C(C)C)CC3)c3c2OCC3)nc2[nH]cc(C(F)(F)F)c12` [Example 254, (7-((4-(ethylamino)-3-(trifluoromethyl)-1H-pyrrolo[2,3-b]pyridin-6-yl)amino)-2,3-dihydrobenzofuran-4-yl)(4-isopropylpiperazin-1-yl)methanone], the 50% inhibitory concentration (IC50) (in experiment [1]; against human GST-CLK1 (129-end); at LRRK2 (G2019S)) was less than 100 nM throughout.

For `COc1cc(S(=O)(=O)N2CCOCC2)ccc1Nc1cc(NC(C)C)c2cc[nH]c2n1` [Example 13, N^4-isopropyl-N^6-(2-methoxy-4-(morpholinosulfonyl)phenyl)-1H-pyrrolo[2,3-b]pyridine-4,6-diamine], the half-maximal inhibitory concentration (IC50) (in experiment [1]; on human GST-CLK1 (129-end); at LRRK2 (G2019S)) was 301 to 1000 nM throughout.

As to `O=C(c1ccc(Nc2cc(NC3CCCCC3)c3cc[nH]c3n2)c2c1OCCO2)N1CCOCC1` [Example 8, (8-((4-(cyclohexylamino)-1H-pyrrolo[2,3-b]pyridin-6-yl)amino)-2,3-dihydrobenzo[b] [1,4]dioxin-5-yl)(morpholino) methanone], the IC50 lay in the range of 301 to 1000 nM in experiment [1], 301 to 1000 nM at human GST-CLK1 (129-end) and 101 to 300 nM at LRRK2 (G2019S).

As for `CNc1cc(Nc2ccc(S(=O)(=O)N3CCC(N4CCOCC4)CC3)cc2OC)nc2[nH]cc(Cl)c12` [Example 73, 3-chloro-N^6-(2-methoxy-4-((morpholinopiperidin-1-yl)sulfonyl)phenyl)-N^4-methyl-1H-pyrrolo[2,3-b]pyridine-4,6-diamine], the IC50 in experiment [1] is 301 to 1000 nM; against human GST-CLK1 (129-end) it was 301 to 1000 nM; against LRRK2 (G2019S), less than 100 nM.

For the compound `CCCNc1cc(Nc2ccc(S(=O)(=O)N3CCOCC3)cc2OC)nc2[nH]cc(Cl)c12` [Example 66, 3-chloro-N^6-(2-methoxy-4-(morpholinosulfonyl)phenyl)-N^4-propyl-1H-pyrrolo[2,3-b]pyridine-4,6-diamine], the half-maximal inhibitory concentration (IC50) (in experiment [1]; at human GST-CLK1 (129-end); on LRRK2 (G2019S)) was 301 to 1000 nM throughout.

Consider `CCNc1cc(Nc2ccc(C(=O)N3CCO[C@@H](C)C3)c3c2OCC3)nc2[nH]cc(C(F)(F)F)c12` [Example 259, (S)-(7-((4-(ethylamino)-3-(trifluoromethyl)-1H-pyrrolo[2,3-b]pyridin-6-yl)amino)-2,3-dihydrobenzofuran-4-yl)(2-methylmorpholino) methanone], for which the IC50 (in experiment [1]; at human GST-CLK1 (129-end); on LRRK2 (G2019S)) was less than 100 nM each time.

On to `COc1cc(S(=O)(=O)N2CCC(N3CCOCC3)CC2)ccc1Nc1cc(NCCS(C)(=O)=O)c2cc[nH]c2n1` [Example 24, N^6-(2-methoxy-4-((4-morpholinopiperidin-1-yl)sulfonyl)phenyl)-N^4-(2-(methylsulfonyl)ethyl)-1H-pyrrolo[2,3-b]pyridine-4,6-diamine], for which the concentration for half-maximal inhibition (IC50) in experiment [1] was 301 to 1000 nM; against human GST-CLK1 (129-end) it was 301 to 1000 nM; against LRRK2 (G2019S), less than 100 nM.

On to `CCCNc1cc(Nc2ccc(C(=O)N3CCOCC3)c3c2OCCO3)nc2[nH]cc(Cl)c12` [Example 58, (8-((3-chloro-4-(propylamino)-1H-pyrrolo[2,3-b]pyridin-6-yl)amino)-2,3-dihydrobenzo[b] [1,4]dioxin-5-yl)(morpholino) methanone], for which the 50% inhibitory concentration (IC50) was 301 to 1000 nM in experiment [1], 301 to 1000 nM against human GST-CLK1 (129-end) and less than 100 nM on LRRK2 (G2019S).

`COc1cc(S(=O)(=O)N2CCC(N3CCOCC3)CC2)ccc1Nc1cc(NC2CC2)c2cc[nH]c2n1` [Example 22, N^4-cyclopropyl-N^6-(2-methoxy-4-((4-morpholinopiperidin-1-yl)sulfonyl)phenyl)-1H-pyrrolo[2,3-b]pyridine-4,6-diamine]: the values for the IC50 (in experiment [1]; against human GST-CLK1 (129-end); against LRRK2 (G2019S)) were 301 to 1000 nM, 301 to 1000 nM and less than 100 nM, respectively.

Turning to `CC(C)Nc1cc(Nc2ccc(C(=O)N3CCOCC3)c3c2OCCO3)nc2[nH]cc(Cl)c12` [Example 59, (8-((3-chloro-4-(isopropylamino)-1H-pyrrolo[2,3-b]pyridin-6-yl)amino)-2,3-dihydrobenzo [b] [1,4]dioxin-5-yl)(morpholino) methanone], the half-inhibitory concentration (IC50) (in experiment [1]; on human GST-CLK1 (129-end); on LRRK2 (G2019S)) was 301 to 1000 nM each time.

Regarding `CCNc1cc(Nc2ccc(C(=O)N3CCOCC3)c3c2OCCO3)nc2[nH]ccc12` [Example 3, (8-((4-(ethylamino)-1H-pyrrolo[2,3-b]pyridin-6-yl)amino)-2,3-dihydrobenzo[b] [1,4]dioxin-5-yl)(morpholino) methanone 2,2,2-trifluoroacetate], the IC50 in experiment [1] lay within 301 to 1000 nM; against human GST-CLK1 (129-end), 301 to 1000 nM; against LRRK2 (G2019S), 101 to 300 nM.

For `CCCNc1cc(Nc2ccc(S(=O)(=O)N3CCC(N4CCOCC4)CC3)cc2OC)nc2[nH]ccc12` [Example 20, N^6-(2-methoxy-4-((4-morpholinopiperidin-1-yl)sulfonyl)phenyl)-N^4-propyl-1H-pyrrolo[2,3-b]pyridine-4,6-diamine], the IC50 in experiment [1] was 301 to 1000 nM; at human GST-CLK1 (129-end), 301 to 1000 nM; against LRRK2 (G2019S), less than 100 nM.

As to `CC(C)Nc1cc(Nc2ccc(C(=O)N3CCOCC3)c3c2OCCO3)nc2[nH]ccc12` [Example 5, (8-((4-(isopropylamino)-1H-pyrrolo[2,3-b]pyridin-6-yl)amino)-2,3-dihydrobenzo[b] [1,4]dioxin-5-yl)(morpholino) methanone], the figures for the IC50 (in experiment [1]; against human GST-CLK1 (129-end); at LRRK2 (G2019S)) were 301 to 1000 nM, 301 to 1000 nM and less than 100 nM, respectively.

Source of the values: patent US12240844B2 (Voronoi, Inc., priority 2019, dated 2025).
